# Results taken from patent US20240239811A1, “5-(5-(PIPERIDIN-4-YL)THIENO[3,2-C]PYRAZOL-2-YL]INDAZOLE DERIVATIVES AND RELATED COMPOUNDS AS MODULATORS FOR SPLICING NUCLEIC ACIDS AND FOR THE T” (REMIX THERAPEUTICS INC., priority 2020, published 2024).
# Counter-ions that a name gives are not always drawn.
# Key:
# Format in all cases: cell-based
# HTT mRNA = experiment: Splicing assay (RT-qPCR) monitoring HTT splice variants, canonical (CJ) and alternative (AJ) junction; details: 50% response, A673 or K562 cell line, 24 hours; for IC50: decrease in CJ mRNA; for AC50: increase in AJ mRNA
# Protocol: (§1) Compounds described herein were used to modulate RNA transcript abundance in cells. The expression of a target mRNA was measured by detecting the formation of an exon-exon junction in the canonical transcript (CJ). A compound mediated exon-inclusion event was detected by observing an increase in formation of a new junction with an alternative exon (AJ). Real-time qPCR assays were used to detect these splicing switches and interrogate the potency of various compounds towards different target genes. A high-throughput real time quantitative PCR (RT-qPCR) assay was developed to measure these two isoforms of the mRNA (CJ and AJ) for an exemplary gene, HTT, together with a control housekeeping gene, GAPDH or GUSB or PPIA, used for normalization. Briefly, the A673 or K562 cell line was treated with various compounds described herein (e.g., compounds of Formula (I)). After treatment, the levels of the HTT mRNA targets were determined from each sample of cell lysate by cDNA synthesis followed by qPCR.
# • Cells-to-CT 1-step kit: ThermoFisher A25602, Cells-to-CT lysis reagent: ThermoFisher 4391851C, TaqMan™ Fast Virus 1-Step Master Mix: ThermoFisher 4444436 • GAPDH: VIC-PL, ThermoFisher 4326317E (Assay: Hs99999905_ml)—used for K562/suspension cell lines • GUSB: VIC-PL, ThermoFisher 4326320E (Assay: Hs99999908_ml)—used for K562/suspension cell lines • PPIA: VIC-PL, ThermoFisher 4326316E (Assay: Hs99999904_ml)—used for A673/adherent cell lines
# (§2) The A673 cell line was cultured in DMEM with 10% FBS. Cells were diluted with full growth media and plated in a 96-well plate (15,000 cells in 100ul media per well). The plate was incubated at 37° C. with 5% CO2 for 24 hours to allow cells to adhere. An 11-point 3-fold serial dilution of the compounds was made in DMSO then diluted in media in an intermediate plate. Compounds were transferred from the intermediate plate to the cell plate with the top dose at a final concentration of 10 uM in the well. Final DMSO concentration was kept at or below 0.25%. The cell plate was returned to the incubator at 37° C. with 5% CO2 for an additional 24 hours.
# (§3) The K562 cell line was cultured in IMDM with 10% FBS. For K562, cells were diluted with full growth media and plated in either a 96-well plate (50,000 cells in 50 uL media per well) or a 384-well plate (8,000-40,000 cells in 45 uL media per well). An 11-point 3-fold serial dilution of the compounds were made in DMSO then diluted in media in an intermediate plate. Compound was transferred from the intermediate plate to the cell plate with the top dose at a final concentration of 10 uM in the well. Final DMSO concentration was kept at or below 0.25%. Final volume was 100 uL for 96-well plate and 50 uL for 384-well plate. The cell plate was then placed in an incubator at 37° C. with 5% CO2 for 24 hours.
# The cells were then gently washed with 50 uL-100 uL cold PBS before proceeding to addition of lysis buffer. 30 uL-50 uL of room temperature lysis buffer with DNAse I (and optionally RNAsin) was added to each well. Cells were shaken/mixed thoroughly at room temperature for 5-10 minutes for lysis to take place and then 3 uL-5 uL of room temperature stop solution was added and wells were shaken/mixed again. After 2-5 minutes, the cell lysate plate was transferred to ice for RT-qPCR reaction setup. The lysates could also be frozen at −80° C. for later use.
# In some cases, a direct lysis buffer was used. An appropriate volume of 3X lysis buffer (10 mM Tris, 150 mM NaCl, 1.5%-2.5% Igepal and 0.1-1 U/uL RNAsin, pH 7.4) was directly added to either K562 or A673 cells in media and mixed by pipetting 3 times. The plates were then incubated at room temperature with shaking/rocking for 20-50 minutes to allow for lysis to take place. After this time, the cell lysate plate was transferred to ice to set up for the RT-qPCR reactions. The lysates could also be frozen at −80° C. for later use. […]
# HTT CJ mRNA = experiment: Gene panel canonical junction qPCR assay, HTT; details: Table 6, decrease in CJ mRNA, read-out: HTT IC50 (decrease in CJ mRNA levels)
# Protocol: as §1, §2, §3
# (§4) The data analysis was performed by first determining the ΔCt vs the housekeeper gene. This ΔCt was then normalized against the DMSO control (ΔΔCt) and converted to RQ (relative quantification) using the 2^(−ΔΔCt) equation. The RQ were then converted to a percentage response by arbitrarily setting an assay window of 3.5 ΔCt for HTT-CJ and an assay window of 9 ΔCt for HTT-AJ. […] The percentage response was then fitted to the 4 parametric logistic equation to evaluate the concentration dependence of compound treatment. The increase in AJ mRNA is reported as AC50 (compound concentration having 50% response in AJ increase) while the decrease in CJ mRNA levels is reported as IC50 (compound concentration having 50% response in CJ decrease).
# (§5) Additional studies were carried out for a larger panel of genes using the protocol provided above. The junction between flanking upstream and downstream exons was used to design canonical junction qPCR assays. At least one of the forward primer, reverse primer or the CY5-labeled 5′ nuclease probe (with 3′ quencher such as ZEN/Iowa Black FQ) was designed to overlap with the exon junction to capture the CJ mRNA transcript. BLAST was used to confirm the specificity of the probeset and parameters such as melting temperature, GC content, amplicon size, and primer dimer formation are considered during their design. Data for the decrease in CJ mRNA levels for three exemplary genes (HTT, SMN2, and Target C) analyzed in this panel are reported as IC50 (compound concentration having […] in CJ decrease).
# SMN2 CJ mRNA = experiment: Gene panel canonical junction qPCR assay, SMN2; details: Table 6, decrease in CJ mRNA, read-out: SMN2 IC50 (decrease in CJ mRNA levels)
# Protocol: as §1, §2, §3, §4, §5
# Target C CJ mRNA = experiment: Gene panel canonical junction qPCR assay, Target C; details: Table 6, decrease in CJ mRNA, read-out: Target C IC50 (decrease in CJ mRNA levels)
# Protocol: as §1, §2, §3, §4, §5
SMILES,IC50 (HTT mRNA) [µM],IC50 (HTT CJ mRNA) [µM],IC50 (SMN2 CJ mRNA) [µM],IC50 (Target C CJ mRNA) [µM],AC50 (HTT mRNA) [µM]
"Cc1cn2nc(-c3cc4cn([C@H]5CCNC[C@@H]5F)nc4s3)cc(C)c2n1 (mixture of isomers) [Compound 212, 5-(2,8-dimethylimidazo[1,2-b]pyridazin-6-yl)-2-((1:1 mixture of 3S,4S and 3R,4R)-3-fluoropiperidin-4-yl)-2H-thieno[2,3-c]pyrazole]",1 to 10,1 to 10,0.1 to 1,> 10,1 to 10
Cn1cc2cc(-c3cc4cn([C@H]5CCNC[C@H]5F)nc4s3)cc(F)c2n1 (stereo in doubt) [Compound 182],< 0.1,< 0.1,< 0.1,0.1 to 1,0.1 to 1
"Cn1cc2cc(-n3cc4sc(C5CCNCC5)cc4n3)ccc2n1 [Compound 100, 2-methyl-5-[5-(piperidin-4-yl)thieno[3,2-c]pyrazol-2-yl]indazole]",,,,> 10,1 to 10
"Cc1cn2nc(-n3cc4sc(C5CCNCC5)cc4n3)cc(C)c2n1 [Compound 101, 4-(2-[2,8-dimethylimidazo[1,2-b]pyridazin-6-yl]thieno[3,2-c]pyrazol-5-yl)piperidine]",< 0.1,< 0.1,< 0.1,< 0.1,0.1 to 1
"Cn1cc2cc(-c3nc4sc(C5CCNCC5)cn4n3)cc(F)c2n1 [Compound 103, 7-fluoro-2-methyl-5-[5-(piperidin-4-yl)-[1,2,4]triazolo[3,2-b][1,3]thiazol-2-yl]indazole]",> 10,> 10,> 10,> 10,> 10
"Cn1cc2cc(-n3cc4sc(C5CCNCC5)cc4n3)cc(F)c2n1 [Compound 105, 7-fluoro-2-methyl-5-[5-(piperidin-4-yl)thieno[3,2-c]pyrazol-2-yl]indazole]",0.1 to 1,0.1 to 1,0.1 to 1,1 to 10,0.1 to 1
"Cc1cn2nc(-c3nc4sc(C5CCNCC5)cc4s3)cc(C)c2n1 [Compound 112, 4-(2-[2,8-dimethylimidazo[1,2-b]pyridazin-6-yl]thieno[2,3-d][1,3]thiazol-5-yl)piperidine]",< 0.1,< 0.1,< 0.1,< 0.1,< 0.1
"Cn1cc2cc(-c3cc4sc(C5CCNCC5)nc4s3)cc(F)c2n1 [Compound 124, 7-fluoro-2-methyl-5-[2-(piperidin-4-yl)thieno[2,3-d][1,3]thiazol-5-yl]indazole]",0.1 to 1,0.1 to 1,< 0.1,0.1 to 1,< 0.1
"Cc1cn2nc(-c3cc4sc(C5CCNCC5)nc4s3)cc(C)c2n1 [Compound 125, 4-(5-[2,8-dimethylimidazo[1,2-b]pyridazin-6-yl]thieno [2,3-d][1,3]thiazol-2-yl) piperidine]",0.1 to 1,0.1 to 1,0.1 to 1,1 to 10,0.1 to 1
"Cc1nc2c(F)cc(-c3nc4sc(C5CCNCC5)cc4s3)cc2s1 [Compound 126, 4-fluoro-2-methyl-6-[5-(piperidin-4-yl)thieno[2,3-d][1,3]thiazol-2-yl]-1,3-benzothiazole hydrochloride]",0.1 to 1,0.1 to 1,0.1 to 1,1 to 10,0.1 to 1
"Cn1cc2ccc(-c3nc4sc(C5CCNCC5)cc4s3)cc2n1 [Compound 127, 2-methyl-6-[5-(piperidin-4-yl)thieno [2,3-d][1,3]thiazol-2-yl]indazole hydrochloride]",1 to 10,1 to 10,1 to 10,1 to 10,1 to 10

# Second part, led by results:
IC50 (HTT mRNA) [µM],IC50 (HTT CJ mRNA) [µM],IC50 (SMN2 CJ mRNA) [µM],IC50 (Target C CJ mRNA) [µM],SMILES,AC50 (HTT mRNA) [µM]
0.1 to 1,0.1 to 1,< 0.1,0.1 to 1,"Cn1cc2cc(-c3cn4nc(C5CCNCC5)nc4s3)cc(F)c2n1 [Compound 102, 7-fluoro-2-methyl-5-[2-(piperidin-4-yl)-[1,2,4]triazolo[3,2-b][1,3]thiazol-5-yl]indazole]",0.1 to 1
< 0.1,< 0.1,< 0.1,0.1 to 1,"Cn1cc2cc(-n3cc4cc(C5CCNCC5)sc4n3)cc(F)c2n1 [Compound 104, 7-fluoro-2-methyl-5-[5-(piperidin-4-yl)thieno[2,3-c]pyrazol-2-yl] indazole]",0.1 to 1
< 0.1,< 0.1,< 0.1,< 0.1,"Cn1cc2cc(-c3nc4sc(C5CCNCC5)cc4s3)cc(F)c2n1 [Compound 106, 7-fluoro-2-methyl-5-[5-(piperidin-4-yl)thieno[2,3-d][1,3]thiazol-2-yl]indazole]",< 0.1
0.1 to 1,0.1 to 1,< 0.1,,"Cc1cn2nc(-n3cc4cc(C5CCNCC5)sc4n3)cc(C)c2n1 [Compound 110, 4-(2-[2,8-dimethylimidazo[1,2-b]pyridazin-6-yl]thieno[2,3-c]pyrazol-5-yl) piperidine]",0.1 to 1
0.1 to 1,0.1 to 1,< 0.1,,"Cn1cc2cc(-c3cc4nn(C5CCNCC5)cc4s3)cc(F)c2n1 [Compound 121, 7-fluoro-2-methyl-5-[2-(piperidin-4-yl)thieno[3,2-c]pyrazol-5-yl]indazole]",0.1 to 1
< 0.1,< 0.1,< 0.1,< 0.1,"Cn1cc2cc(-c3cc4cn(C5CCNCC5)nc4s3)cc(F)c2n1 [Compound 122, 7-fluoro-2-methyl-5-[2-(piperidin-4-yl)thieno[2,3-c]pyrazol-5-yl]indazole]",0.1 to 1
0.1 to 1,0.1 to 1,,,Cn1cc2cc(-c3cc4cn([C@H]5CCNC[C@@H]5F)nc4s3)cc(F)c2n1 [Compound 190],0.1 to 1
